Earlier results, collected in US8771712B2, “Topical administration of acyclovir” (Emisphere Technologies, Inc., priority 2006, dated 2014).

Conditions: humans, microdialysis

## Nc1nc2c(ncn2COCCO)c(=O)[nH]1 [acyclovir, 9-(2-hydroxyethoxymethyl) guanine]
After removal of the stratum corneum and infusion of 0.0005% noradrenaline
  Acyclovir concentration (dermis): 3.9 µg/mL
Application to intact skin
  Acyclovir in the dermis: no acyclovir was detected
